How the values were obtained:
Experiment in all cases: relative viability (nuclei count vs DMSO), 5 days (fraction); higher = more cells survive
[1] = system: NCI-H2023
Method in brief: (§1)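 Dosing by pin tool came one day after lung cancer cell lines were seeded in 1536-well plates, using either one drug or a fixed anchor-drug dose plus five library-drug doses (not always all listed) in √10 steps. After 5 days, nuclei were counted on 4× images. Relative viability is treated-well nuclei count divided by vehicle-well nuclei count, and values are medians of duplicate plates.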

[2] = system: NCI-H2126
Method in brief: as §1

[3] = system: NCI-H322M
Method in brief: as §1

[4] = system: EPLC-272H
Method in brief: as §1

[5] = system: HCC-15
Method in brief: as §1

[6] = system: NCI-H522
Method in brief: as §1

[7] = system: HOP-62
Method in brief: as §1

[8] = system: COR-L 105
Method in brief: as §1

[9] = system: EMC-BAC-2
Method in brief: as §1

[10] = system: NCI-H1993
Method in brief: as §1

[11] = system: ChaGo-K-1
Method in brief: as §1

[12] = system: UMC-11
Method in brief: as §1

[13] = system: NCI-H3122
Method in brief: as §1

[14] = system: NCI-H2085
Method in brief: as §1

[15] = system: LXF-289
Method in brief: as §1

[16] = system: CAL-12T
Method in brief: as §1

[17] = system: NCI-H358
Method in brief: as §1

[18] = system: NCI-H441
Method in brief: as §1

[19] = system: NCI-H1915
Method in brief: as §1

[20] = system: NCI-H1755
Method in brief: as §1

[21] = system: ABC-1
Method in brief: as §1

[22] = system: NCI-H1975
Method in brief: as §1

[23] = system: NCI-H1666
Method in brief: as §1

Work on `Clc1ccc(Nc2nnc(Cc3ccncc3)c3ccccc23)cc1` [Vatalanib] + CCNC(=O)c1noc(-c2cc(C(C)C)c(O)cc2O)c1-c1ccc(CN2CCOCC2)cc1 [Luminespib] (partner 0.01 µM) yielded a relative viability ([1]; first compound 0.04 µM) of 0.58, a relative viability ([1]; first compound 0.1265 µM) of 0.66 and a relative viability ([1]; first compound 0.4 µM) of 0.762. For the same compound, the relative viability ([1]; first compound 1.265 µM) was 0.537, the relative viability ([1]; first compound 4 µM) was 0.688 and the relative viability ([2]; first compound 0.04 µM) was 0.925. For the same compound, the relative viability ([2]; first compound 0.1265 µM) was 0.864, the relative viability ([2]; first compound 0.4 µM) was 0.919 and the relative viability ([2]; first compound 1.265 µM) was 0.94. For the same compound, the relative viability ([2]; first compound 4 µM) was 0.908, the relative viability ([3]; first compound 0.04 µM) was 0.849 and the relative viability ([3]; first compound 0.1265 µM) was 0.798. It also gave a relative viability ([3]; first compound 0.4 µM) of 0.877, a relative viability ([3]; first compound 1.265 µM) of 0.793 and a relative viability ([3]; first compound 4 µM) of 0.909. For the same compound, the relative viability ([4]; first compound 0.04 µM) was 0.593, the relative viability ([4]; first compound 0.1265 µM) was 0.654 and the relative viability ([4]; first compound 0.4 µM) was 0.26. The relative viability ([4]; first compound 1.265 µM) was 0.2, the relative viability ([4]; first compound 4 µM) was 0.296 and the relative viability ([5]; first compound 0.04 µM) was 0.42. For the same compound, the relative viability ([5]; first compound 0.1265 µM) was 0.457, the relative viability ([5]; first compound 0.4 µM) was 0.181 and the relative viability ([5]; first compound 1.265 µM) was 0.234. The relative viability ([5]; first compound 4 µM) was 0.235, the relative viability ([6]; first compound 0.04 µM) was 1.02 and the relative viability ([6]; first compound 0.1265 µM) was 1.23. The relative viability ([6]; first compound 0.4 µM) was 1.2, the relative viability ([6]; first compound 1.265 µM) was 1.15 and the relative viability ([6]; first compound 4 µM) was 1.1. The relative viability ([7]; first compound 0.04 µM) was 0.928, the relative viability ([7]; first compound 0.1265 µM) was 0.925 and the relative viability ([7]; first compound 0.4 µM) was 0.895. For the same compound, the relative viability ([7]; first compound 1.265 µM) was 0.883, the relative viability ([7]; first compound 4 µM) was 0.959 and the relative viability ([8]; first compound 0.04 µM) was 0.814. It also gave a relative viability ([8]; first compound 0.1265 µM) of 0.7, a relative viability ([8]; first compound 0.4 µM) of 0.877 and a relative viability ([8]; first compound 1.265 µM) of 0.843. It also gave a relative viability ([8]; first compound 4 µM) of 0.74, a relative viability ([9]; first compound 0.04 µM) of 1.16 and a relative viability ([9]; first compound 0.1265 µM) of 1.13. It also gave a relative viability ([9]; first compound 0.4 µM) of 1.34, a relative viability ([9]; first compound 1.265 µM) of 1.09 and a relative viability ([9]; first compound 4 µM) of 1.15. It also gave a relative viability ([10]; first compound 0.04 µM) of 0.955, a relative viability ([10]; first compound 0.1265 µM) of 0.958 and a relative viability ([10]; first compound 0.4 µM) of 0.865. The relative viability ([10]; first compound 1.265 µM) was 0.71, the relative viability ([10]; first compound 4 µM) was 0.82 and the relative viability ([11]; first compound 0.04 µM) was 0.636. It also gave a relative viability ([11]; first compound 0.1265 µM) of 0.608, a relative viability ([11]; first compound 0.4 µM) of 0.671 and a relative viability ([11]; first compound 1.265 µM) of 0.471. It also gave a relative viability ([11]; first compound 4 µM) of 0.45, a relative viability ([12]; first compound 0.04 µM) of 1.08 and a relative viability ([12]; first compound 0.1265 µM) of 1.11. It also gave a relative viability ([12]; first compound 0.4 µM) of 0.996, a relative viability ([12]; first compound 1.265 µM) of 1.02 and a relative viability ([12]; first compound 4 µM) of 1.01. For the same compound, the relative viability ([13]; first compound 0.04 µM) was 0.0962, the relative viability ([13]; first compound 0.1265 µM) was 0.0894 and the relative viability ([13]; first compound 0.4 µM) was 0.0775. It also gave a relative viability ([13]; first compound 1.265 µM) of 0.0975, a relative viability ([13]; first compound 4 µM) of 0.0766 and a relative viability ([14]; first compound 0.04 µM) of 0.474. The relative viability ([14]; first compound 0.1265 µM) was 0.529, the relative viability ([14]; first compound 0.4 µM) was 0.464 and the relative viability ([14]; first compound 1.265 µM) was 0.609. The relative viability ([14]; first compound 4 µM) was 0.469, the relative viability ([15]; first compound 0.04 µM) was 0.703 and the relative viability ([15]; first compound 0.1265 µM) was 0.634. It also gave a relative viability ([15]; first compound 0.4 µM) of 0.734, a relative viability ([15]; first compound 1.265 µM) of 0.623 and a relative viability ([15]; first compound 4 µM) of 0.633. For the same compound, the relative viability ([16]; first compound 0.04 µM) was 0.722, the relative viability ([16]; first compound 0.1265 µM) was 0.406 and the relative viability ([16]; first compound 0.4 µM) was 0.502. For the same compound, the relative viability ([16]; first compound 1.265 µM) was 0.255, the relative viability ([16]; first compound 4 µM) was 0.513 and the relative viability ([17]; first compound 0.04 µM) was 0.498. It also gave a relative viability ([17]; first compound 0.1265 µM) of 0.381, a relative viability ([17]; first compound 0.4 µM) of 0.353 and a relative viability ([17]; first compound 1.265 µM) of 0.345. The relative viability ([17]; first compound 4 µM) was 0.308, the relative viability ([18]; first compound 0.04 µM) was 0.367 and the relative viability ([18]; first compound 0.1265 µM) was 0.251. The relative viability ([18]; first compound 0.4 µM) was 0.382, the relative viability ([18]; first compound 1.265 µM) was 0.377 and the relative viability ([18]; first compound 4 µM) was 0.354. For the same compound, the relative viability ([19]; first compound 0.04 µM) was 0.847, the relative viability ([19]; first compound 0.1265 µM) was 0.7 and the relative viability ([19]; first compound 0.4 µM) was 0.828. The relative viability ([19]; first compound 1.265 µM) was 0.846, the relative viability ([19]; first compound 4 µM) was 0.758 and the relative viability ([20]; first compound 0.04 µM) was 0.419. It also gave a relative viability ([20]; first compound 0.1265 µM) of 0.439, a relative viability ([20]; first compound 0.4 µM) of 0.556 and a relative viability ([20]; first compound 1.265 µM) of 0.316. It also gave a relative viability ([20]; first compound 4 µM) of 0.453, a relative viability ([21]; first compound 0.04 µM) of 0.822 and a relative viability ([21]; first compound 1.265 µM) of 0.63. It also gave a relative viability ([21]; first compound 4 µM) of 0.507, a relative viability ([22]; first compound 0.04 µM) of 0.154 and a relative viability ([22]; first compound 0.1265 µM) of 0.238. It also gave a relative viability ([22]; first compound 0.4 µM) of 0.237, a relative viability ([22]; first compound 1.265 µM) of 0.29 and a relative viability ([22]; first compound 4 µM) of 0.177. For the same compound, the relative viability ([23]; first compound 0.04 µM) was 0.986, the relative viability ([23]; first compound 0.1265 µM) was 0.991 and the relative viability ([23]; first compound 0.4 µM) was 0.996. The relative viability ([23]; first compound 1.265 µM) was 1.01 and the relative viability ([23]; first compound 4 µM) was 1.04.

From the supplement of paper PMC10307832
